Assays:
Male ddY mice [1] = experiment: Suppressing activity on oxycodone analgesic tolerance (hot plate method, response latency); conditions: for Latency (sec) Pre value (before drug administration on last day) / ΔChange (Latency at each time point − Pre value) 0.5 h / ΔChange (Latency at each time point − Pre value) 1 h / ΔChange (Latency at each time point − Pre value) 2 h: Table 6; for Latency (sec) Pre value (before drug administration on last day): day 4; for ΔChange (Latency at each time point − Pre value) 0.5 h: day 4, 0.5 h; for ΔChange (Latency at each time point − Pre value) 1 h: day 4, 1 h; for ΔChange (Latency at each time point − Pre value) 2 h: day 4, 2 h
Male ddY mice [2] = experiment: Suppressing activity on morphine-induced constipation (number of fecal pellets); assay type: in vivo
Protocol: Food and water were provided ad libitum. At the time of collection of fecal pellets, food and water were not provided.
Morphine was dissolved in physiological saline at a concentration of 0.3 mg/mL and subcutaneously administered at a dose of 3 mg/kg.
On the day of the test, the tails of the mice were numbered for identification, and the body weight of each mouse was measured. On the basis of the measured body weight, 0.5% MC or Compound (IA) was orally administered. At 30 minutes after administration of 0.5% MC or Compound (IA), physiological saline or morphine was subcutaneously administered, and collection of fecal pellets was started. The fecal pellets were collected at 3 hours after administration of morphine. The amount of feces was evaluated by counting the number of the fecal pellets.

adenosine A2A receptor = conditions: known from the literature (Eur. J. Pharmacol., 1994, 267(3), 335 and others); cited from earlier work
Male ddY mice [3] = experiment: Suppressing activity on morphine analgesic tolerance (hot plate method, response latency); assay type: in vivo; conditions: Test Example 1, FIG. 1
[4] = Compound (IA) 10 mg/kg p.o. repeatedly administered alone
[5] = repeated combination group: Compound (IA) 10 mg/kg p.o. 30 min before oxycodone 20 mg/kg p.o., 4 days

SMILES: CCCn1c(=O)c2c(nc(/C=C/c3ccc(OC)c(OC)c3)n2C)n(CCC)c1=O [Compound (IA)]
- Latency (sec) Pre value (before drug administration on last day) (Male ddY mice [1]; [4]): 11.9 ± 1.2 s
- ΔChange (Latency at each time point − Pre value) 0.5 h (Male ddY mice [1]; [4]): -0.2 ± 1.7 s
- ΔChange (Latency at each time point − Pre value) 1 h (Male ddY mice [1]; [4]): -0.4 ± 2.2 s
- ΔChange (Latency at each time point − Pre value) 2 h (Male ddY mice [1]; [4]): -0.1 ± 2.2 s
- Latency (sec) Pre value (before drug administration on last day) (Male ddY mice [1]; [5]): 11.9 ± 0.7 s
- ΔChange (Latency at each time point − Pre value) 0.5 h (Male ddY mice [1]; [5]): 13.5 ± 2.6 s
- ΔChange (Latency at each time point − Pre value) 1 h (Male ddY mice [1]; [5]): 6.0 ± 1.6 s
- ΔChange (Latency at each time point − Pre value) 2 h (Male ddY mice [1]; [5]): 2.2 ± 1.6 s
- development of analgesic tolerance (response latency) (Male ddY mice [1]; Test Example 7, Compound (IA) 10 mg/kg p.o. 30 min before oxycodone 20 mg/kg p.o., 4 days): the development of analgesic tolerance was prevented
- effect on the response latency (Male ddY mice [1]; Test Example 7, Compound (IA) 10 mg/kg p.o. repeatedly administered alone): the effect on the response latency was not observed
- number of fecal pellets (Male ddY mice [2]; FIG. 2, Compound (IA) 10 mg/kg p.o. 30 min before morphine 3 mg/kg s.c., 3 hours, vs morphine administration group): significantly increased
- diarrhea (Male ddY mice [2]; combination: Compound (IA) 10 mg/kg p.o. and morphine 3 mg/kg s.c.): diarrhea was not induced
- diarrhea (Male ddY mice [2]; only Compound (IA) 10 mg/kg p.o. administered): diarrhea was not induced
- adenosine A2A receptor antagonistic activity (adenosine A2A receptor): potent and selective
- development of analgesic tolerance (response latency) (Male ddY mice [3]; Compound (IA) 10 mg/kg p.o. 30 min before morphine 6 mg/kg s.c., repeated 7 days): the development of analgesic tolerance was prevented
- effect on the response latency (Male ddY mice [3]; [4]): the effect on the response latency was not observed

— patent US8865731B2, “Inhibitor of analgesic tolerance” (Kyowa Hakko Kirin Co., Ltd., priority 2008, dated 2014)
